These results are taken from ChEMBL document CHEMBL3991601, “The target landscape of clinical kinase drugs” (Science, 2017).

Experiment [1] has as its target Tyrosine-protein kinase Lyn (Homo sapiens, UniProt P07948).
The target in experiment [2] is T1, Beta-adrenergic receptor kinase 1 (Homo sapiens, UniProt P25098).
T1 sequence (P25098 whole entry): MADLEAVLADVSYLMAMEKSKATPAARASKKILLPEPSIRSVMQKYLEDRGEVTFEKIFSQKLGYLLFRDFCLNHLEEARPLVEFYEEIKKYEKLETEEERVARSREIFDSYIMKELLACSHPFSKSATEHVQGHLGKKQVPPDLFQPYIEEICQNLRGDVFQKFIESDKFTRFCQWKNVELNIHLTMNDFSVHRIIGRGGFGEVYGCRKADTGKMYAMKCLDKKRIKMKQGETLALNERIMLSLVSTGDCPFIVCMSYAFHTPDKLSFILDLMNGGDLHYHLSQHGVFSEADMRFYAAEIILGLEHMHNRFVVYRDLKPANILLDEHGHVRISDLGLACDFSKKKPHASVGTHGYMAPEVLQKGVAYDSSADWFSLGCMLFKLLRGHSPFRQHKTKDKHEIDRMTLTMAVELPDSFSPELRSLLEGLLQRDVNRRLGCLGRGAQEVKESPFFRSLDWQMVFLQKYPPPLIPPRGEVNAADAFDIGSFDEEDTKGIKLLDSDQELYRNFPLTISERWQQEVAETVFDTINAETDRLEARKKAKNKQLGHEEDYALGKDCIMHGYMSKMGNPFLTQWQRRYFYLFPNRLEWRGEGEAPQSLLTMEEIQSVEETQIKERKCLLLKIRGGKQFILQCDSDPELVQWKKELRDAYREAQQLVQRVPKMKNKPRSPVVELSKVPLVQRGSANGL

The target of experiment [3] is Tyrosine-protein kinase SYK (Homo sapiens, UniProt P43405).
The target of experiment [4] is T2, Peroxisomal acyl-coenzyme A oxidase 3 (Homo sapiens, UniProt O15254).
T2 sequence (O15254 whole entry): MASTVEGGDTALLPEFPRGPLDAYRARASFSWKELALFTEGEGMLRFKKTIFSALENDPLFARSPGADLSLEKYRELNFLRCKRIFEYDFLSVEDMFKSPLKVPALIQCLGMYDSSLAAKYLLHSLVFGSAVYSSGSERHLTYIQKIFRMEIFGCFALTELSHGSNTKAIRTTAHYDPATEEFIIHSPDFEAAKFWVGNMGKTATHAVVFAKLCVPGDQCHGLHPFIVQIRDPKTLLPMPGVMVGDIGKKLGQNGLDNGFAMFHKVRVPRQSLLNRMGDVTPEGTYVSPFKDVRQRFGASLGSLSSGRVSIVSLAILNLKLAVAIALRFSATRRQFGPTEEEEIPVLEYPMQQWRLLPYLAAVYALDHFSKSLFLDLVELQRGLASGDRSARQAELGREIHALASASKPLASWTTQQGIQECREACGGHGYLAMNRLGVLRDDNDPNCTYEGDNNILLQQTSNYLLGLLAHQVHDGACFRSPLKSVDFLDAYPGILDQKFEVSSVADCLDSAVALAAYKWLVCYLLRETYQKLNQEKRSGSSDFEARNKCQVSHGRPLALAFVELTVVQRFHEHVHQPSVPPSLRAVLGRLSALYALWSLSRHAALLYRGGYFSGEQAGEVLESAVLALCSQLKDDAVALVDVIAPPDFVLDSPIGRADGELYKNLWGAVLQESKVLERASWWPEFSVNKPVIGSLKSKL

Experiment [5] concerns the target Serine/threonine-protein kinase N2 (Homo sapiens, UniProt Q16513).
The target of experiment [6] is U5 small nuclear ribonucleoprotein 200 kDa helicase (Homo sapiens, UniProt O75643).
Experiment [7] has as its target BMP-2-inducible protein kinase (Homo sapiens, UniProt Q9NSY1).
The target in experiment [8] is T3, Serine/threonine-protein kinase 3 (Homo sapiens, UniProt Q13188).
T3 sequence (Q13188 whole entry): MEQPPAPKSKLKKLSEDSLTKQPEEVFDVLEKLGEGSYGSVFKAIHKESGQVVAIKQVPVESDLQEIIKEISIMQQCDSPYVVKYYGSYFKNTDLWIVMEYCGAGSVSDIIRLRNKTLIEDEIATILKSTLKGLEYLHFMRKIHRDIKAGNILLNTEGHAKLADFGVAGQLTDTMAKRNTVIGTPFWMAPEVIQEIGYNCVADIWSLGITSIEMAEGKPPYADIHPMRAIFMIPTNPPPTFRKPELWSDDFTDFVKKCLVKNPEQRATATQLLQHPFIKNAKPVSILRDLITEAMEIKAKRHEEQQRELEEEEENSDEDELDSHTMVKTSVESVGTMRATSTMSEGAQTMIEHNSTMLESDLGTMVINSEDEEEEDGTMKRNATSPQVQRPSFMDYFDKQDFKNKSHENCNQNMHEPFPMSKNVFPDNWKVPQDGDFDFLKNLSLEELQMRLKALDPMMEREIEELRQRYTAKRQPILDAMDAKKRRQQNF

Experiment [9] has as its target Tyrosine-protein kinase Fer (Homo sapiens, UniProt P16591).
Experiment [10] addresses T4, ATP-dependent RNA helicase DDX1 (Homo sapiens, UniProt Q92499).
T4 sequence (Q92499 whole entry): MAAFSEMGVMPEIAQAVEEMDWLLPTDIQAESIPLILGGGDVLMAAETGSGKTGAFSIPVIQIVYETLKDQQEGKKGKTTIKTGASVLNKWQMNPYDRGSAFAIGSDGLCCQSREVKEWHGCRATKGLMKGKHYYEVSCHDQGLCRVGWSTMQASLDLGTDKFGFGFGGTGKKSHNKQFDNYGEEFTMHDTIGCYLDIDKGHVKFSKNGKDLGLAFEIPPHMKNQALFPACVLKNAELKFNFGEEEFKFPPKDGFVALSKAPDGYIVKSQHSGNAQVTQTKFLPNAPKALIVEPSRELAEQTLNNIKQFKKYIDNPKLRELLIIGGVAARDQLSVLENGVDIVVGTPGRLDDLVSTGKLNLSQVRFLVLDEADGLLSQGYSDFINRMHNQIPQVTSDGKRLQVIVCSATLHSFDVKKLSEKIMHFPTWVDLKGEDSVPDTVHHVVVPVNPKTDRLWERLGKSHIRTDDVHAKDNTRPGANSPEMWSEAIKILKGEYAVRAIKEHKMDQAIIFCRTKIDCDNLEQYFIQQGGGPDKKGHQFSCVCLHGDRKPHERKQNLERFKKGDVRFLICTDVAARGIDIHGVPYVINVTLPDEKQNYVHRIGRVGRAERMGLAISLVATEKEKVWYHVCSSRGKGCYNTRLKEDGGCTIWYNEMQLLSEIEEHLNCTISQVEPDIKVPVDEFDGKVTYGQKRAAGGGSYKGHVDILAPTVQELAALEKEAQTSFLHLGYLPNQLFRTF

Molecules are shown by their SMILES. Calls of active or inactive are those of the source. Cut-off read from the data, not from the text of the source, for most assays here: actives have a measured Kd and inactives only a lower limit.
Note: in the data inactive means no Kd found up to 30 µM.

Sequence of Tyrosine-protein kinase Fer (P16591 whole entry): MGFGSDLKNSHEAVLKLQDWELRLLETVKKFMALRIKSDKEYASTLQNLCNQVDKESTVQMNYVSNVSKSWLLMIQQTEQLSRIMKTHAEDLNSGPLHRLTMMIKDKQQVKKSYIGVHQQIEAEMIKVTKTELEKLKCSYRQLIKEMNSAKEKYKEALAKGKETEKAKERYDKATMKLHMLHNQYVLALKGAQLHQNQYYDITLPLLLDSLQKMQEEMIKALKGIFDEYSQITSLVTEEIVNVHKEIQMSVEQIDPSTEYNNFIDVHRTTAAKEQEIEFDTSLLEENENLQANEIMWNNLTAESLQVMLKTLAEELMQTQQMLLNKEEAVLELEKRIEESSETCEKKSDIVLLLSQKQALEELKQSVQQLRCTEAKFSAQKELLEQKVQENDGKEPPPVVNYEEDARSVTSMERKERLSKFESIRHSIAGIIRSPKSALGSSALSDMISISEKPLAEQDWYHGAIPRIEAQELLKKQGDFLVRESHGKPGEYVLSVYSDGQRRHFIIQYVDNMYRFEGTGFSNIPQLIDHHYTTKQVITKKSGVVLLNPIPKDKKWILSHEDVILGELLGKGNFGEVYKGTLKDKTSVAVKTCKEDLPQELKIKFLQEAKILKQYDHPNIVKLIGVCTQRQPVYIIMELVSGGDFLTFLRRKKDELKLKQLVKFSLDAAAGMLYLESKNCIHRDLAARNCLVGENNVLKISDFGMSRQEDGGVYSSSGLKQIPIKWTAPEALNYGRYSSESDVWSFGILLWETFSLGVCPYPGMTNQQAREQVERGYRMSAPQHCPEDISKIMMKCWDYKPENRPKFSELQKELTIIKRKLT
Sequence of BMP-2-inducible protein kinase (Q9NSY1 whole entry): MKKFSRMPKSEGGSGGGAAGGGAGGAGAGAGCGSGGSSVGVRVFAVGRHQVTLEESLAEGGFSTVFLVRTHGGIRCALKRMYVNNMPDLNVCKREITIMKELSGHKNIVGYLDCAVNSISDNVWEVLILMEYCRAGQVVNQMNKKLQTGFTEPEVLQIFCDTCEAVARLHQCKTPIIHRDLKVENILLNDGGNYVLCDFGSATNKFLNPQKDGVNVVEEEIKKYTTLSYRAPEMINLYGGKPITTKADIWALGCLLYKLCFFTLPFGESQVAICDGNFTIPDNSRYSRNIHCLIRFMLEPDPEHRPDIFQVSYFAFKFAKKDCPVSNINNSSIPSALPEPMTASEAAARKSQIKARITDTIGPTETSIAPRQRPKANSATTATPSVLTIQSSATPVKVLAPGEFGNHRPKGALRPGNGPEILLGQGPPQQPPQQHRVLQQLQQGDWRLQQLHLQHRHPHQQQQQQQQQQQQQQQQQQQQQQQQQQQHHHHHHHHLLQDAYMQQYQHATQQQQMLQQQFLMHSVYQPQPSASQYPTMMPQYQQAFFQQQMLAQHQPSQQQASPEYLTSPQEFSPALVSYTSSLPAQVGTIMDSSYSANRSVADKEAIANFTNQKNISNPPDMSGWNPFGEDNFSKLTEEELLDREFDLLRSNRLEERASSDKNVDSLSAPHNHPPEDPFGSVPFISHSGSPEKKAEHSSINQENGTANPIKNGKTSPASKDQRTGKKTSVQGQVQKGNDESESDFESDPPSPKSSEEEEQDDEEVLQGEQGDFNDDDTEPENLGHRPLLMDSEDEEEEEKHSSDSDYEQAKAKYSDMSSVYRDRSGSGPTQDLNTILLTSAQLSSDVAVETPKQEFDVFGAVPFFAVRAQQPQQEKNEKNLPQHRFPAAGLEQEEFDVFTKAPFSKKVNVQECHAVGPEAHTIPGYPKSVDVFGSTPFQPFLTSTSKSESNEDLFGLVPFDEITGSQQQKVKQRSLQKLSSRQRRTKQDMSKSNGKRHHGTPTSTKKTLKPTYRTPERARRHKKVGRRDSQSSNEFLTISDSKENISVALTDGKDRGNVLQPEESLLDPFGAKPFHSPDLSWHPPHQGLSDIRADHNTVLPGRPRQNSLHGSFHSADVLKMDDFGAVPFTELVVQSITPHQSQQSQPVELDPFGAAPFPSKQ
Sequence of Tyrosine-protein kinase Lyn (P07948 whole entry): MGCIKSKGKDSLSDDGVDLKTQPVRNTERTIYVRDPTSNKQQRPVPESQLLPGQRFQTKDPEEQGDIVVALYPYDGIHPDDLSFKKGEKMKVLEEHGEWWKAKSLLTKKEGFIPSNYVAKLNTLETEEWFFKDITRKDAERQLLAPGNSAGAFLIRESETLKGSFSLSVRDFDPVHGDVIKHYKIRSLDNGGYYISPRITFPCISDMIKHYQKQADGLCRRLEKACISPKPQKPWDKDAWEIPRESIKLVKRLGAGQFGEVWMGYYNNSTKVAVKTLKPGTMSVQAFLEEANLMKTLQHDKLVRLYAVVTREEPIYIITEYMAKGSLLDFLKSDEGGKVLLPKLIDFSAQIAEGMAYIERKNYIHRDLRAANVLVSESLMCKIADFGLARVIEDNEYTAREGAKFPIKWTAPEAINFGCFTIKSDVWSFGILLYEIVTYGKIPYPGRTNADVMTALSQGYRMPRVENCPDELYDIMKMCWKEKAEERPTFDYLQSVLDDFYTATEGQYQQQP
Sequence of U5 small nuclear ribonucleoprotein 200 kDa helicase (O75643 whole entry): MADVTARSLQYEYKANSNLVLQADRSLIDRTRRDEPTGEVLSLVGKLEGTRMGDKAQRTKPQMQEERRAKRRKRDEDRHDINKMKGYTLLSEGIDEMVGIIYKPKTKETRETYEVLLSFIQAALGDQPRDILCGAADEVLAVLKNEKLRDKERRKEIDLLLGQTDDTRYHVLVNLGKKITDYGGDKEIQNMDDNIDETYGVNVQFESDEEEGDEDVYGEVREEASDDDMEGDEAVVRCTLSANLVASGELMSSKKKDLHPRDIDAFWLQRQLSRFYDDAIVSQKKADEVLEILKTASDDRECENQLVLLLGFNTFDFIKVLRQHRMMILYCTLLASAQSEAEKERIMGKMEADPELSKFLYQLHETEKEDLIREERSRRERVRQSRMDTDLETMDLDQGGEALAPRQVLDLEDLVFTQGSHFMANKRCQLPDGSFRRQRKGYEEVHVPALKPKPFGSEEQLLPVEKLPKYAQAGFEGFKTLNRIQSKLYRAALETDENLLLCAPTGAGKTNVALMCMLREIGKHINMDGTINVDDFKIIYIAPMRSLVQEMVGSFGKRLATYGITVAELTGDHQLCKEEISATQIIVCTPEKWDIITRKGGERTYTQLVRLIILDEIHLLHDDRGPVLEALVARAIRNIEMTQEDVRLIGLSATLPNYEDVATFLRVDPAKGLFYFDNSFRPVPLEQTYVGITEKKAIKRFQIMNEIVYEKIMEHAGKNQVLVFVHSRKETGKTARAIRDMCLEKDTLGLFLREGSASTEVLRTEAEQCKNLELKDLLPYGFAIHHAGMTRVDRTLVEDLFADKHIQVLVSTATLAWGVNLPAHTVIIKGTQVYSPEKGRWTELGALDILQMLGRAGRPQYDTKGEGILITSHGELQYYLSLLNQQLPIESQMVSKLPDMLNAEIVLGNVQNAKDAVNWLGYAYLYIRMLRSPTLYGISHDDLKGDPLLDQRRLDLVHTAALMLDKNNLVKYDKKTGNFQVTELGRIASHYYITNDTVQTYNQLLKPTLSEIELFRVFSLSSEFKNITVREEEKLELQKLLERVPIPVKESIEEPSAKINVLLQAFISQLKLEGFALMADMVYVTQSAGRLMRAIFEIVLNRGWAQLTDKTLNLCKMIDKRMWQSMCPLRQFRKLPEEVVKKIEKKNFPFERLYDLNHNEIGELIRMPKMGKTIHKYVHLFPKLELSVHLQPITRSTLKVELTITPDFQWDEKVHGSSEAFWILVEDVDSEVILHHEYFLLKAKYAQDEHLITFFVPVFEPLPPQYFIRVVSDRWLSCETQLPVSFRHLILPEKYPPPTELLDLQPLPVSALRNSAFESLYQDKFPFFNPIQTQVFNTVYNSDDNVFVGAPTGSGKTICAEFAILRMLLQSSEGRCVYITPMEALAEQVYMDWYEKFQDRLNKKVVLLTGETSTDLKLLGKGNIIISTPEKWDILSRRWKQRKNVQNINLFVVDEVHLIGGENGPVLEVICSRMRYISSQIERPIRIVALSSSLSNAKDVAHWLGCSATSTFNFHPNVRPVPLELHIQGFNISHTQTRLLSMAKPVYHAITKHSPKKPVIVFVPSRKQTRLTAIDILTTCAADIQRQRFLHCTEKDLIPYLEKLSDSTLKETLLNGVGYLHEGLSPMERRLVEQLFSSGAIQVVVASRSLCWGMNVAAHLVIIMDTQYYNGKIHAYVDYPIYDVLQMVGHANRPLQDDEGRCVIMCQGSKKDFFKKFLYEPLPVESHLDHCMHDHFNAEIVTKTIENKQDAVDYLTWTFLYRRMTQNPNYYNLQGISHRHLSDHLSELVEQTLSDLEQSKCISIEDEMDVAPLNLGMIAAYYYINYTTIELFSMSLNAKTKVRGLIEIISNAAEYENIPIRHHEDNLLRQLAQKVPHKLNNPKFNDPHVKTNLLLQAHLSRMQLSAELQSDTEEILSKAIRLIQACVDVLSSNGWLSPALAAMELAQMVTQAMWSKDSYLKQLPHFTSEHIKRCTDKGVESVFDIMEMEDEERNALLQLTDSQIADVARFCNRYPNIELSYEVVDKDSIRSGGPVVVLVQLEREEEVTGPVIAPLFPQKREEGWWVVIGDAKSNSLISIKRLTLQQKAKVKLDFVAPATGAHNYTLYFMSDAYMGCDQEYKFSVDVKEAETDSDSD

Broadly, the Kd is a measure of binding affinity in units of concentration. As for `C[C@@H](Oc1cc(C(=O)Nc2ccc(C(=O)N3CCN(C)CC3)cc2)nnc1N)c1c(Cl)ccc(F)c1Cl`, the Kd in experiment [1], in experiment [2], in experiment [3], in experiment [4], in experiment [5] and in experiment [6] was > 30 µM (inactive) throughout. Also, the Kd in [7], in experiment [8] and in experiment [9] was > 30 µM (inactive) each time.

Consider `C[C@H]1CNCCCN1S(=O)(=O)c1cccc2cncc(F)c12`, for which the Kd was > 30 µM (inactive) in [1]; > 30 µM (inactive) in experiment [2]; > 30 µM (inactive) in [3]; > 30 µM (inactive) in [4]; > 30 µM (inactive) in experiment [10]; 0.285 µM (active) in experiment [5]. Also, the Kd in [6], in [7], in [8] and in experiment [9] was > 30 µM (inactive) throughout.

As for `CCNC(=O)C#Cc1ccc2c(c1)NC(=O)/C2=C(\Nc1ccc(CN(C)C)cc1)c1ccccc1`, the equilibrium dissociation constant (Kd) is 0.097 µM (active) in experiment [1]; > 30 µM (inactive) in experiment [2]; > 30 µM (inactive) in [3]; > 30 µM (inactive) in experiment [4]; > 30 µM (inactive) in experiment [10]; > 30 µM (inactive) in experiment [5]. For the same molecule, the Kd in experiment [6] was > 30 µM (inactive); in experiment [7], > 30 µM (inactive); in experiment [8], 5.05 µM (active); in [9], 0.385 µM (active).

Turning to `C=CC(=O)N1CCC[C@H](n2c(=O)n(-c3ccc(Oc4ccccc4)cc3)c3c(N)ncnc32)C1`, the Kd was 0.006 µM in experiment [1]; > 30 µM (inactive) in [2]; > 30 µM (inactive) in experiment [3]; > 30 µM (inactive) in experiment [4]; > 30 µM (inactive) in experiment [10]; > 30 µM (inactive) in [5]. Besides, the Kd in experiment [6], in experiment [7], in experiment [8] and in experiment [9] was > 30 µM (inactive) each time.

As for `Cc1nc2cc(-c3nn(C(C)C)c4ncnc(N)c34)ccc2o1`, the Kd in experiment [1], in experiment [2], in experiment [3], in experiment [4], in experiment [10] and in experiment [5] was > 30 µM (inactive) in each case. For the same molecule, the Kd in experiment [6], in experiment [7], in experiment [8] and in experiment [9] was > 30 µM (inactive) each time.

For `COCc1c(-c2ccc(NC(=O)Nc3cc(C(F)(F)F)ccc3F)c(F)c2)c2c(N)ncnn2c1CN1CCOCC1`, the Kd in experiment [1], in [2], in [3], in [4], in experiment [10] and in experiment [5] was > 30 µM (inactive) each time. The Kd in experiment [6], in experiment [7], in experiment [8] and in experiment [9] was > 30 µM (inactive) in each case.

Consider `Nc1ncnc2c1c(-c1cccc(OCc3ccccc3)c1)cn2[C@H]1C[C@@H](CN2CCC2)C1` [AEW-541], for which the dissociation constant Kd in experiment [1] is 2.44 µM (active); in experiment [2], > 30 µM (inactive); in experiment [3] it was > 30 µM (inactive); in experiment [4], > 30 µM (inactive); in experiment [10] it was > 30 µM (inactive); in [5], > 30 µM (inactive). The Kd in [6], in [7], in experiment [8] and in experiment [9] was > 30 µM (inactive) throughout.

Take `Cc1nc(NC(=O)N2CCC[C@H]2C(N)=O)sc1-c1ccnc(C(C)(C)C(F)(F)F)c1` [ALPELISIB]: the Kd in experiment [1], in experiment [2], in experiment [3], in [4], in experiment [10] and in experiment [5] was > 30 µM (inactive) throughout. The Kd in [6], in experiment [7], in experiment [8] and in experiment [9] was > 30 µM (inactive) throughout.

Turning to `CCn1cc(-c2ccnc3[nH]c(-c4cccc(CN(C)C)c4)cc23)c(-c2ccc(NC(=O)N(C)C)cc2)n1` [GSK-1070916], the Kd in [1], in experiment [3], in experiment [4], in experiment [10], in experiment [5] and in experiment [6] was > 30 µM (inactive) each time. The Kd in [8] and in [9] was > 30 µM (inactive) throughout.

In the case of `CNC(=O)c1nn(C)c2c1C(C)(C)Cc1cnc(Nc3ccc(N4CCN(C)CC4)cc3)nc1-2` [MILCICLIB], the Kd in [1] is 3.54 µM (active); in [2] it was > 30 µM (inactive); in experiment [3], > 30 µM (inactive); in experiment [4], > 30 µM (inactive); in experiment [5], > 30 µM (inactive); in experiment [6] it was > 30 µM (inactive). Further, the Kd in experiment [7], in experiment [8] and in [9] was > 30 µM (inactive) each time.

`CCOc1cc2ncc(C#N)c(Nc3ccc(F)c(Cl)c3)c2cc1NC(=O)/C=C/CN(C)C` [PELITINIB]: the Kd in experiment [1], in experiment [2], in experiment [3], in experiment [4], in experiment [10] and in [5] was > 30 µM (inactive) each time. Also, the Kd in [6], in experiment [8] and in experiment [9] was > 30 µM (inactive) in each case.
